Test results taken from patent US7294687B2, “Parenteral formulations of a peptide for the treatment of systemic lupus erythematosus” (TEVA Pharmaceutical Industries, Ltd., priority 2003, dated 2007).
Like-named read-outs stand apart in the source and are kept apart here.

Experiments:
[1] = Stability of Compound 1 versus pH, initial tests; format: physicochemical; details: basic pH range
Description: Thus, several buffers and pH adjustment agents were tested, including acetate buffer, citrate buffer and sodium carbonate. None of the initially tested buffers achieved the desired peptide solubility level. […] Nevertheless, at the initial stage, formulations with acetate buffer and citrate buffer (with Mannitol as a tonicity agent) were selected for initial toxicology studies. These formulations were tested for biological activity and proven active.

SLE subjects [2] = assay: Phase Ia single dose clinical study, tolerability and safety; format: in vivo, human
Description: The following safety parameters were assessed at Screening, during the hospitalization and at follow-up visits including Termination visit: vital signs (systolic blood pressure, diastolic blood pressure, pulse, oxygen saturation, temperature and weight), 12-lead ECG, change in physical examination and clinical routine laboratory safety tests. Adverse events were recorded at the Dosing Day and at each visit thereafter.

[3] = tested on: IFN-γ secretion by LN cells; assay: IFN-γ secretion by cultured LN cells of immunized and treated mice, ELISA; format: in vivo, BALB/c mice
Description: A group of 20 mice were immunized with 50 μg/mouse of Compound 1 RS. The immunized mice were allocated to five treatment groups as follows: placebo, 25, 50, 100 and 200 μg/mouse of Compound 1 DP (subcutaneous administration). Ten days post immunization and treatment, LN was extracted and single cell suspension was prepared. The in-vitro secretion of IFN-γ and TGF-β by the cultured cells in response to activation with several concentrations of Compound 1 RS was then measured. [table] [table] […] Mice were sacrificed by cervical dislocation. LN were extracted from the hind legs and were transferred to a sterile petri dish containing about 5 mL RPMI. The cells were extracted by gentle squeezing of the tissue against a 200 micrometer mesh stainless steel net. The cells were collected and centrifuged at 300 G for 10 minutes at RT. Single cell suspensions were prepared from pooled LN of each experimental group. […] Secretion of IFN-γ and TGF-β, as indication of cellular response, were determined by ELISA of culture media (48 hrs for IFN-γ and 72 hrs for TGF-β). [table]

[4] = tested on: SLE-prone (NZBxNZW)F1 female mouse; assay: Anti-dsDNA antibodies in SLE-prone mice; format: in vivo, (NZBxNZW)F1 mice; details: 25 or 50 μg/mouse in Captisol®; after 10 treatment injections; vs Captisol® alone
Description: The same batch of drug substance was used in this study and in the first Phase I clinical trial with Compound 1. The mice were followed for anti-dsDNA antibodies and for proteinuria. When the mice were sacrificed, the intensity of ICD was determined in kidneys.

[5] = tested on: peripheral blood lymphocytes (PBL) of SLE patients; details: cited from earlier work
SLE subjects [6] = assay: Phase Ib multiple dose clinical study, tolerability and safety; format: in vivo, human; details: multiple subcutaneous doses of 0.5, 1 or 2.5 mg in 120 mg Captisol®; 12 sc injections
Description: This study is being performed in order to evaluate the safety and tolerability of repeated Compound 1 sc administration to SLE subjects. […] The investigational product is administered every other day (excluding weekends) for a total of 12 sc injections, i.e. 3 doses a week for 4 weeks. Subjects are monitored on planned visits scheduled at 2, 4, 8 and 12 weeks after start of dosing. Safety and tolerability are evaluated using tests similar to those described in the Phase Ia Clinical Study above.

[7] = tested on: peripheral blood lymphocytes (PBL) of SLE subjects; details: Compound 1 in captisol®, throughout the study period
[8] = Solubility of Compound 1 peptide, formulation development; format: physicochemical
Source text: In order to develop a formulation for sub-cutaneous injection, it is also desirable that the pH be in the range of 4 to 9 and that the solution be iso-osmotic.
The pH was adjusted if needed.

[9] = tested on: Balb/c mice and SLE-prone (NZBxNZW)F1 mice; details: cited from earlier work
[10] = tested on: IL-2 secretion from Compound 1 reference standard (RS) specific T-cells; assay: Inhibition of IL-2 secretion from Compound 1 RS specific T-cells following s.c. treatment, ELISA; format: in vivo, mice; details: at the range of 5-100 μg/ml activator
Source text: The biological activity was monitored by inhibition of IL-2 secretion from Compound 1 reference standard (RS) specific T-cells following subcutaneous (s.c.) treatment with the lyophilized compound solution, i.e. the drug product (DP), at two concentrations. The results of the treatment are compared to those of treating mice with Compound 1 (RS) in phosphate buffered saline (PBS).

[11] = single s.c. dose 0.5, 1 or 2.5 mg in Captisol®
[12] = single s.c. dose 0.5, 1 or 2.5 mg in Captisol®, vs placebo

H-GYYWSWIRQPPGKGEEWIG-OH [Compound 1]
stability versus pH [1]: less stable
QTc change from baseline (SLE subjects [2]; [11]): ≤ 60 ms
serious adverse event (SAE) or AE classified as severe (SLE subjects [2]; [11]): No serious adverse event (SAE) or AE classified as severe occurred
vital signs parameters (systolic and diastolic blood pressure, pulse, oxygen saturation) (SLE subjects [2]; [11]): No clinically significant effect
categorical ECG measurements and digitized ECG parameters (SLE subjects [2]; [12]): No differences of clinical significance
incidence of AEs (SLE subjects [2]; [12]): no prominent difference
safety and tolerability, Phase Ia (SLE subjects [2]; single subcutaneous dose of 0.5, 1 or 2.5 mg in 120 mg Captisol®): safe and well tolerated
Final cytokine (IFN-γ secretion) ([3]; Compound 1 DP 25 μg/M s.c., 5 million cells/well, activation Compound 1 RS 3.125 μg/ml): BQL
Final cytokine (IFN-γ secretion) ([3]; Compound 1 DP 25 μg/M s.c., 5 million cells/well, activation Compound 1 RS 6.25 μg/ml): BQL
Final cytokine (IFN-γ secretion) ([3]; Compound 1 DP 25 μg/M s.c., 5 million cells/well, activation Compound 1 RS 12.5 μg/ml): 41.9 pg/mL
Final cytokine (IFN-γ secretion) ([3]; Compound 1 DP 25 μg/M s.c., 5 million cells/well, activation Compound 1 RS 50 μg/ml): 104.2 pg/mL
Final cytokine (IFN-γ secretion) ([3]; Compound 1 DP 25 μg/M s.c., 5 million cells/well, activation Compound 1 RS 100 μg/ml): 185.2 pg/mL
Final cytokine (IFN-γ secretion) ([3]; Compound 1 DP 25 μg/M s.c., 5 million cells/well, activation Compound 1 RS 25 μ/ml): 70.0 pg/mL
Final cytokine (IFN-γ secretion) ([3]; Compound 1 DP 25 μg/M s.c., 5 million cells/well, activation Con A): 2995.3 pg/mL
Final cytokine (IFN-γ secretion) ([3]; Compound 1 DP 50 μg/M s.c., 2.5 million cells/well, activation Compound 1 RS 3.125 μg/ml): 54.1 pg/mL
Final cytokine (IFN-γ secretion) ([3]; Compound 1 DP 50 μg/M s.c., 2.5 million cells/well, activation Compound 1 RS 6.25 μg/ml): 81.8 pg/mL
Final cytokine (IFN-γ secretion) ([3]; Compound 1 DP 50 μg/M s.c., 2.5 million cells/well, activation Compound 1 RS 12.5 μg/ml): 123.1 pg/mL
Final cytokine (IFN-γ secretion) ([3]; Compound 1 DP 50 μg/M s.c., 2.5 million cells/well, activation Compound 1 RS 50 μg/ml): 292.5 pg/mL
Final cytokine (IFN-γ secretion) ([3]; Compound 1 DP 50 μg/M s.c., 2.5 million cells/well, activation Compound 1 RS 100 μg/ml): 531.8 pg/mL
Final cytokine (IFN-γ secretion) ([3]; Compound 1 DP 50 μg/M s.c., 2.5 million cells/well, activation Compound 1 RS 25 μ/ml): 215.1 pg/mL
Final cytokine (IFN-γ secretion) ([3]; Compound 1 DP 50 μg/M s.c., 2.5 million cells/well, activation Con A): 356.2 pg/mL
Final cytokine (IFN-γ secretion) ([3]; Compound 1 DP 50 μg/M s.c., 5 million cells/well, activation Compound 1 RS 3.125 μg/ml): 76.2 pg/mL
Final cytokine (IFN-γ secretion) ([3]; Compound 1 DP 50 μg/M s.c., 5 million cells/well, activation Compound 1 RS 6.25 μg/ml): 109.2 pg/mL
Final cytokine (IFN-γ secretion) ([3]; Compound 1 DP 50 μg/M s.c., 5 million cells/well, activation Compound 1 RS 12.5 μg/ml): 179.5 pg/mL
Final cytokine (IFN-γ secretion) ([3]; Compound 1 DP 50 μg/M s.c., 5 million cells/well, activation Compound 1 RS 50 μg/ml): 373.4 pg/mL
Final cytokine (IFN-γ secretion) ([3]; Compound 1 DP 50 μg/M s.c., 5 million cells/well, activation Compound 1 RS 100 μg/ml): 547.0 pg/mL
Final cytokine (IFN-γ secretion) ([3]; Compound 1 DP 50 μg/M s.c., 5 million cells/well, activation Compound 1 RS 25 μ/ml): 277.9 pg/mL
Final cytokine (IFN-γ secretion) ([3]; Compound 1 DP 50 μg/M s.c., 5 million cells/well, activation Con A): 4837.0 pg/mL
Final cytokine (IFN-γ secretion) ([3]; Compound 1 DP 100 μg/M s.c., 2.5 million cells/well, activation Compound 1 RS 3.125 μg/ml): 64.5 pg/mL
Final cytokine (IFN-γ secretion) ([3]; Compound 1 DP 100 μg/M s.c., 2.5 million cells/well, activation Compound 1 RS 6.25 μg/ml): 116.1 pg/mL
Final cytokine (IFN-γ secretion) ([3]; Compound 1 DP 100 μg/M s.c., 2.5 million cells/well, activation Compound 1 RS 12.5 μg/ml): 180.9 pg/mL
Final cytokine (IFN-γ secretion) ([3]; Compound 1 DP 100 μg/M s.c., 2.5 million cells/well, activation Compound 1 RS 50 μg/ml): 518.3 pg/mL
Final cytokine (IFN-γ secretion) ([3]; Compound 1 DP 100 μg/M s.c., 2.5 million cells/well, activation Compound 1 RS 100 μg/ml): 582.7 pg/mL
Final cytokine (IFN-γ secretion) ([3]; Compound 1 DP 100 μg/M s.c., 2.5 million cells/well, activation Compound 1 RS 25 μ/ml): 262.8 pg/mL
Final cytokine (IFN-γ secretion) ([3]; Compound 1 DP 100 μg/M s.c., 2.5 million cells/well, activation Con A): 337.4 pg/mL
Final cytokine (IFN-γ secretion) ([3]; Compound 1 DP 100 μg/M s.c., 5 million cells/well, activation Compound 1 RS 3.125 μg/ml): 90.8 pg/mL
Final cytokine (IFN-γ secretion) ([3]; Compound 1 DP 100 μg/M s.c., 5 million cells/well, activation Compound 1 RS 6.25 μg/ml): 157.8 pg/mL
Final cytokine (IFN-γ secretion) ([3]; Compound 1 DP 100 μg/M s.c., 5 million cells/well, activation Compound 1 RS 12.5 μg/ml): 257.1 pg/mL
Final cytokine (IFN-γ secretion) ([3]; Compound 1 DP 100 μg/M s.c., 5 million cells/well, activation Compound 1 RS 50 μg/ml): 739.7 pg/mL
Final cytokine (IFN-γ secretion) ([3]; Compound 1 DP 100 μg/M s.c., 5 million cells/well, activation Compound 1 RS 100 μg/ml): 995.5 pg/mL
Final cytokine (IFN-γ secretion) ([3]; Compound 1 DP 100 μg/M s.c., 5 million cells/well, activation Compound 1 RS 25 μ/ml): 421.7 pg/mL
Final cytokine (IFN-γ secretion) ([3]; Compound 1 DP 100 μg/M s.c., 5 million cells/well, activation Con A): 10126.8 pg/mL
Final cytokine (IFN-γ secretion) ([3]; Compound 1 DP 200 μg/M s.c., 2.5 million cells/well, activation Compound 1 RS 3.125 μg/ml): 103.9 pg/mL
Final cytokine (IFN-γ secretion) ([3]; Compound 1 DP 200 μg/M s.c., 2.5 million cells/well, activation Compound 1 RS 6.25 μg/ml): 126.1 pg/mL
Final cytokine (IFN-γ secretion) ([3]; Compound 1 DP 200 μg/M s.c., 2.5 million cells/well, activation Compound 1 RS 12.5 μg/ml): 129.0 pg/mL
Final cytokine (IFN-γ secretion) ([3]; Compound 1 DP 200 μg/M s.c., 2.5 million cells/well, activation Compound 1 RS 50 μg/ml): 378.1 pg/mL
Final cytokine (IFN-γ secretion) ([3]; Compound 1 DP 200 μg/M s.c., 2.5 million cells/well, activation Compound 1 RS 100 μg/ml): 524.1 pg/mL
Final cytokine (IFN-γ secretion) ([3]; Compound 1 DP 200 μg/M s.c., 2.5 million cells/well, activation Compound 1 RS 25 μ/ml): 240.3 pg/mL
Final cytokine (IFN-γ secretion) ([3]; Compound 1 DP 200 μg/M s.c., 2.5 million cells/well, activation Con A): BQL
Final cytokine (IFN-γ secretion) ([3]; Compound 1 DP 200 μg/M s.c., 5 million cells/well, activation Compound 1 RS 3.125 μg/ml): 204.4 pg/mL
Final cytokine (IFN-γ secretion) ([3]; Compound 1 DP 200 μg/M s.c., 5 million cells/well, activation Compound 1 RS 6.25 μg/ml): 244.1 pg/mL
Final cytokine (IFN-γ secretion) ([3]; Compound 1 DP 200 μg/M s.c., 5 million cells/well, activation Compound 1 RS 12.5 μg/ml): 466.1 pg/mL
Final cytokine (IFN-γ secretion) ([3]; Compound 1 DP 200 μg/M s.c., 5 million cells/well, activation Compound 1 RS 50 μg/ml): 922.5 pg/mL
Final cytokine (IFN-γ secretion) ([3]; Compound 1 DP 200 μg/M s.c., 5 million cells/well, activation Compound 1 RS 100 μg/ml): 1006.2 pg/mL
Final cytokine (IFN-γ secretion) ([3]; Compound 1 DP 200 μg/M s.c., 5 million cells/well, activation Compound 1 RS 25 μ/ml): 660.5 pg/mL
Final cytokine (IFN-γ secretion) ([3]; Compound 1 DP 200 μg/M s.c., 5 million cells/well, activation Con A): 7722.8 pg/mL
inhibition of IFN-γ secretion ([3]; all the doses used for treatment (25-200 μg/mouse)): Significant inhibition
levels of dsDNA-specific antibodies [4]: no significant differences between groups
proliferative response of PBL of SLE patients to the human anti-DNA 16/6Id mAB [5]: inhibit the proliferative response
safety and tolerability, Phase Ib (SLE subjects [6]): safe and well tolerated
immunological response to TTX recall antigen [7]: did not change the immunological response to TTX recall antigen
solubility ([8]; only above pH 9.2 and below pH 3.0, buffers and pH adjustment agents, read-out: solubility levels): ≥ 2000 µg/mL
solubility ([8]; water (aqueous solution), acetate salt, read-out: aqueous solubility of the peptide): < 500 µg/mL
SLE related findings: immune complex deposits (ICD) in the kidney, proteinuria and leukopenia ([9]; Balb/c and (NZBxNZW)F1 mice): significantly reduced
disease manifestations of mice afflicted with spontaneous or experimental SLE ([9]; mouse, in vivo): ameliorate disease manifestations
Average inhibition (%) of IL-2 secretion ([10]; treatment 50 μg/mouse s.c.): 45.6%
Average inhibition (%) of IL-2 secretion ([10]; treatment 200 μg/mouse s.c.): 60.4%
